From PubChem BioAssay (NCI)
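Protocol summary: plate cells (96-well), add compound at 5 concentrations, incubate 48 h, interpolate endpoints linearly. TGI: concentration producing complete growth inhibition.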

How the values were obtained:
Assay in all cases: inhibition of tumour cell growth, NCI panel, 48 h
[1] = tested on: CAKI-1 renal
[2] = tested on: NCI-H522 lung
[3] = tested on: KM12 colon
[4] = tested on: A498 renal
[5] = tested on: SK-MEL-5 melanoma
[6] = tested on: HCT-116 colon
[7] = tested on: ACHN renal
[8] = tested on: HT29 colon
[9] = tested on: HS 578T breast
[10] = tested on: PC-3 prostate
[11] = tested on: OVCAR-8 ovarian
[12] = tested on: NCI/ADR-RES ovarian
[13] = tested on: MALME-3M melanoma
[14] = tested on: SN12C renal
[15] = tested on: DU-145 prostate
[16] = tested on: SW-620 colon
[17] = tested on: M14 melanoma
[18] = tested on: OVCAR-4 ovarian
[19] = tested on: OVCAR-3 ovarian
[20] = tested on: UACC-62 melanoma
[21] = tested on: MCF7 breast
[22] = tested on: HCC-2998 colon
[23] = tested on: U251 CNS
[24] = tested on: IGROV1 ovarian
[25] = tested on: SK-OV-3 ovarian
[26] = tested on: SNB-19 CNS
[27] = tested on: SK-MEL-2 melanoma
[28] = tested on: HOP-62 NSCLC
[29] = tested on: CCRF-CEM leukemia
[30] = tested on: HCT-15 colon
[31] = tested on: OVCAR-5 ovarian
[32] = tested on: NCI-H226 lung
[33] = tested on: COLO 205 colon
[34] = tested on: UO-31 renal
[35] = tested on: SF-539 CNS
[36] = tested on: SNB-75 CNS
[37] = tested on: K-562 leukemia
[38] = tested on: RPMI-8226 leukemia
[39] = tested on: MDA-N
[40] = tested on: MDA-MB-231 breast
[41] = tested on: A549 NSCLC
[42] = tested on: MDA-MB-435
[43] = tested on: LOX IMVI melanoma
[44] = tested on: SK-MEL-28 melanoma
[45] = tested on: SF-268 CNS
[46] = tested on: SF-295 CNS
[47] = tested on: TK-10 renal
[48] = tested on: SR leukemia
[49] = tested on: T-47D breast
[50] = tested on: UACC-257 melanoma
[51] = tested on: 786-0 renal
[52] = tested on: HL-60(TB) leukemia
[53] = tested on: BT-549 breast
[54] = tested on: NCI-H23 lung
[55] = tested on: MOLT-4 leukemia
[56] = tested on: NCI-H460 lung
[57] = tested on: EKVX NSCLC

CCOC(=O)C1(Cc2ccc3c(c2)CCC3)Cc2cc3c(cc2C1=O)CCC3 (configuration not stated)
TGI [1]: > 100 µM
TGI [2]: > 100 µM
TGI [3]: > 100 µM
TGI [4]: > 78.7 µM
TGI [5]: > 100 µM
TGI [6]: > 100 µM
TGI [7]: > 100 µM
TGI [8]: > 100 µM
TGI [9]: > 100 µM
TGI [10]: > 100 µM
TGI [11]: > 100 µM
TGI [12]: > 100 µM
TGI [13]: > 100 µM
TGI [14]: > 100 µM
TGI [15]: > 100 µM
TGI [16]: > 100 µM
TGI [17]: > 100 µM
TGI [18]: > 100 µM
TGI [19]: > 100 µM
TGI [20]: > 100 µM
TGI [21]: > 100 µM
TGI [22]: > 100 µM
TGI [23]: > 100 µM
TGI [24]: > 100 µM
TGI [25]: > 100 µM
TGI [26]: > 100 µM
TGI [27]: > 100 µM
TGI [28]: > 100 µM
TGI [29]: > 100 µM
TGI [30]: > 100 µM
TGI [31]: > 100 µM
TGI [32]: > 100 µM
TGI [33]: > 100 µM
TGI [34]: > 100 µM
TGI [35]: > 100 µM
TGI [36]: > 100 µM
TGI [37]: > 100 µM
TGI [38]: > 100 µM
TGI [39]: > 100 µM
TGI [40]: > 100 µM
TGI [41]: > 100 µM
TGI [42]: > 100 µM
TGI [43]: > 100 µM
TGI [44]: > 100 µM
TGI [45]: > 100 µM
TGI [46]: > 100 µM
TGI [47]: > 100 µM
TGI [48]: > 100 µM
TGI [49]: > 100 µM
TGI [50]: > 100 µM
TGI [51]: > 100 µM
TGI [52]: 7.07 µM
TGI [53]: > 100 µM
TGI [54]: > 100 µM
TGI [55]: > 100 µM
TGI [56]: > 100 µM
TGI [57]: > 100 µM

c1ccc(NNC2=NCCN2)cc1
TGI [1]: > 100 µM
TGI [2]: > 100 µM
TGI [3]: > 100 µM
TGI [4]: > 100 µM
TGI [5]: > 100 µM
TGI [6]: > 100 µM
TGI [7]: > 100 µM
TGI [8]: > 100 µM
TGI [9]: > 100 µM
TGI [10]: > 100 µM
TGI [11]: > 100 µM
TGI [12]: > 100 µM
TGI [14]: > 100 µM
TGI [15]: > 100 µM
TGI [16]: > 100 µM
TGI [17]: > 100 µM
TGI [18]: > 100 µM
TGI [19]: > 100 µM
TGI [20]: > 100 µM
TGI [21]: > 100 µM
TGI [23]: > 100 µM
TGI [24]: > 100 µM
TGI [25]: > 100 µM
TGI [26]: > 100 µM
TGI [27]: > 100 µM
TGI [28]: > 100 µM
TGI [29]: > 100 µM
TGI [30]: > 100 µM
TGI [31]: > 100 µM
TGI [32]: > 100 µM
TGI [33]: > 100 µM
TGI [34]: > 100 µM
TGI [35]: > 100 µM
TGI [36]: > 100 µM
TGI [37]: > 100 µM
TGI [38]: > 100 µM
TGI [39]: > 100 µM
TGI [40]: > 100 µM
TGI [41]: > 100 µM
TGI [42]: > 100 µM
TGI [43]: > 100 µM
TGI [44]: > 100 µM
TGI [45]: > 100 µM
TGI [46]: > 100 µM
TGI [47]: > 100 µM
TGI [48]: > 100 µM
TGI [49]: > 100 µM
TGI [50]: > 100 µM
TGI [51]: > 100 µM
TGI [52]: > 100 µM
TGI [53]: > 100 µM
TGI [54]: > 100 µM
TGI [55]: > 100 µM
TGI [56]: > 100 µM
TGI [57]: > 100 µM
